Laboratory results from ChEMBL document CHEMBL1201862, “PubChem BioAssay data set” (2004).
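Assay format: 96-well plates, 48-hour exposure. GI50: concentration for 50% inhibition of growth.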 Calls of active or inactive are those of the source. Cut-off read from the data, not from the text of the source: active = GI50 up to about 1.1 µM and inactive = higher.

Key:
Assay in all cases: growth of human tumour cells (NCI), 48 h
[1] = test system: SN12C
[2] = test system: NCI/ADR-RES
[3] = test system: UO-31
[4] = test system: T47D
[5] = test system: HOP-62
[6] = test system: OVCAR-8
[7] = test system: HCC 2998
[8] = test system: CAKI-1
[9] = test system: PC-3
[10] = test system: SK-MEL-28
[11] = test system: EKVX
[12] = test system: HL-60
[13] = test system: Hs-578T
[14] = test system: OVCAR-3
[15] = test system: SK-OV-3
[16] = test system: 786-0
[17] = test system: SF-268
[18] = test system: DMS-273
[19] = test system: KM-20L2

| SMILES | GI50 [1] | GI50 [2] | GI50 [3] | GI50 [4] | GI50 [5] | GI50 [6] | GI50 [7] | GI50 [8] | GI50 [9] | GI50 [10] | GI50 [11] | GI50 [12] | GI50 [13] | GI50 [14] | GI50 [15] | GI50 [16] | GI50 [17] | GI50 [18] | GI50 [19] |
| --- | --- | --- | --- | --- | --- | --- | --- | --- | --- | --- | --- | --- | --- | --- | --- | --- | --- | --- | --- |
| C[N+](C)(C)CCN[N+]1(C)CCCc2ccccc21 (centres undefined) | > 100 µM (inactive) | > 100 µM (inactive) | > 100 µM (inactive) | 36.5 µM (inactive) | > 100 µM (inactive) | > 100 µM (inactive) | > 100 µM (inactive) | > 100 µM (inactive) | > 100 µM (inactive) | > 100 µM (inactive) | > 100 µM (inactive) | 0.67 µM (active) | > 100 µM (inactive) | > 100 µM (inactive) | > 100 µM (inactive) | 33.3 µM (inactive) | > 100 µM (inactive) | – | – |
| C=C(C)CN(CC#N)CC(=C)C | > 100 µM (inactive) | > 100 µM (inactive) | > 100 µM (inactive) | > 100 µM (inactive) | > 100 µM (inactive) | > 100 µM (inactive) | > 100 µM (inactive) | > 100 µM (inactive) | > 100 µM (inactive) | > 100 µM (inactive) | > 100 µM (inactive) | > 100 µM (inactive) | 83.2 µM (inactive) | > 100 µM (inactive) | > 100 µM (inactive) | > 100 µM (inactive) | > 100 µM (inactive) | – | – |
| O=C(CN1C(=O)c2ccccc2C1=O)C(O)CN1C(=O)c2ccccc2C1=O (centres undefined) | 53.5 µM (inactive) | > 100 µM (inactive) | 73.3 µM (inactive) | 93.5 µM (inactive) | 17.9 µM (inactive) | 46.5 µM (inactive) | > 100 µM (inactive) | > 100 µM (inactive) | > 100 µM (inactive) | > 100 µM (inactive) | 76.2 µM (inactive) | 44.7 µM (inactive) | 34.7 µM (inactive) | > 100 µM (inactive) | 27.9 µM (inactive) | 28 µM (inactive) | 23.5 µM (inactive) | – | – |
| O=C(O)c1ccc(O)c(/N=N/c2cc(S(=O)(=O)O)c3ccccc3c2O)c1 | > 100 µM (inactive) | – | > 100 µM (inactive) | – | 19.6 µM (inactive) | > 100 µM (inactive) | > 100 µM (inactive) | 54.3 µM (inactive) | – | > 100 µM (inactive) | 23.3 µM (inactive) | > 100 µM (inactive) | – | 92.3 µM (inactive) | > 10 µM (inactive) | > 100 µM (inactive) | > 10 µM (inactive) | > 100 µM (inactive) | > 100 µM (inactive) |
| O=C(CC1(O)C(=O)Nc2ccc(Br)cc21)c1ccc(Cl)cc1Cl (centres undefined) | 35.6 µM (inactive) | – | > 100 µM (inactive) | – | 83.6 µM (inactive) | 47.9 µM (inactive) | 91.8 µM (inactive) | – | – | 44 µM (inactive) | > 100 µM (inactive) | 19.1 µM (inactive) | – | 34.9 µM (inactive) | 79.1 µM (inactive) | 87.1 µM (inactive) | 50.1 µM (inactive) | – | > 100 µM (inactive) |
| COC(=O)N/N=C(\C)C(CN1CCOCC1)C(c1ccccc1)c1cc2ccccc2oc1=O (centres undefined) | > 100 µM (inactive) | 55.8 µM (inactive) | > 100 µM (inactive) | > 100 µM (inactive) | > 100 µM (inactive) | > 100 µM (inactive) | > 100 µM (inactive) | > 100 µM (inactive) | > 100 µM (inactive) | > 100 µM (inactive) | > 100 µM (inactive) | 36.3 µM (inactive) | > 100 µM (inactive) | > 100 µM (inactive) | > 100 µM (inactive) | > 100 µM (inactive) | > 100 µM (inactive) | – | – |
| Clc1cc(Cl)c2cc3cccc[n+]3cc2c1Cl | 17.9 µM (inactive) | 18.3 µM (inactive) | 15.1 µM (inactive) | 7.64 µM (inactive) | 15.6 µM (inactive) | 15.1 µM (inactive) | 17.1 µM (inactive) | 6.17 µM (inactive) | 14 µM (inactive) | 15.5 µM (inactive) | 13.8 µM (inactive) | 12.7 µM (inactive) | 18.1 µM (inactive) | 12.1 µM (inactive) | 16.6 µM (inactive) | 18.7 µM (inactive) | 12.8 µM (inactive) | – | – |
| CCOC(=O)C(C(=O)c1ccccc1C(=O)OC)=P(c1ccccc1)(c1ccccc1)c1ccccc1 | > 10 µM (inactive) | > 10 µM (inactive) | > 10 µM (inactive) | > 10 µM (inactive) | > 10 µM (inactive) | > 10 µM (inactive) | > 10 µM (inactive) | > 10 µM (inactive) | > 10 µM (inactive) | > 10 µM (inactive) | > 10 µM (inactive) | > 10 µM (inactive) | > 10 µM (inactive) | > 10 µM (inactive) | > 10 µM (inactive) | > 10 µM (inactive) | > 10 µM (inactive) | – | – |
| S=C(/N=c1\sc(NCc2ccccc2)nc2sc3c(c12)CCN(N1CCc2c(sc4nc(NCc5ccccc5)s/c(=N\C(=S)NCc5ccccc5)c24)C1)C3)NCc1ccccc1 | 16.2 µM (inactive) | 37.8 µM (inactive) | 15.4 µM (inactive) | 21.2 µM (inactive) | 27.5 µM (inactive) | 20.9 µM (inactive) | 44.7 µM (inactive) | 21.9 µM (inactive) | 17 µM (inactive) | 63.4 µM (inactive) | 19.9 µM (inactive) | 25.4 µM (inactive) | 54.3 µM (inactive) | 20.1 µM (inactive) | 53.2 µM (inactive) | 9.64 µM (inactive) | 27.4 µM (inactive) | – | – |
| O=C1/C(=C/c2ccccc2)CN(C(=O)OCC(Cl)(Cl)Cl)C/C1=C\c1ccccc1 | 1.84 µM (inactive) | – | 3.52 µM (inactive) | – | – | 1.76 µM (inactive) | – | – | – | 1.66 µM (inactive) | > 10 µM (inactive) | 0.897 µM (active) | – | 4.19 µM (inactive) | 7.48 µM (inactive) | 2.14 µM (inactive) | 3.81 µM (inactive) | 1.5 µM (inactive) | 2.44 µM (inactive) |
| Cc1c(C(=O)c2ccc(N)c3ccccc23)c2ccccc2n1CCN1CCOCC1 | 33.8 µM (inactive) | 23.4 µM (inactive) | 25.5 µM (inactive) | 31.5 µM (inactive) | 5.74 µM (inactive) | 31.2 µM (inactive) | 21.1 µM (inactive) | 7.85 µM (inactive) | 27.5 µM (inactive) | 43.5 µM (inactive) | 29.1 µM (inactive) | 22.3 µM (inactive) | 0.759 µM (active) | 15.7 µM (inactive) | 1.97 µM (inactive) | 28 µM (inactive) | 28.6 µM (inactive) | – | – |
| CN(/C(=N\O)c1ccccc1)c1ccccc1 | 32.1 µM (inactive) | – | 25.5 µM (inactive) | – | 22.9 µM (inactive) | 24.8 µM (inactive) | 25.9 µM (inactive) | 37.2 µM (inactive) | – | – | 23.3 µM (inactive) | 19.7 µM (inactive) | – | 21.7 µM (inactive) | – | 21.7 µM (inactive) | 28.1 µM (inactive) | 24.3 µM (inactive) | 17.3 µM (inactive) |
| Cc1[nH]c2ccccc2c1C1Cc2ccccc2N1C(=O)/C=C/C=C/c1ccccc1 (centres undefined) | > 100 µM (inactive) | – | > 100 µM (inactive) | – | > 100 µM (inactive) | > 100 µM (inactive) | > 100 µM (inactive) | > 100 µM (inactive) | – | > 100 µM (inactive) | > 100 µM (inactive) | 27.5 µM (inactive) | – | 13.1 µM (inactive) | > 100 µM (inactive) | > 100 µM (inactive) | – | > 100 µM (inactive) | > 100 µM (inactive) |
| C/C(CC(=O)Nc1ccc(C)c(C)c1)=N\NC(N)=S | – | – | > 100 µM (inactive) | – | > 100 µM (inactive) | > 100 µM (inactive) | > 100 µM (inactive) | – | – | > 100 µM (inactive) | > 100 µM (inactive) | > 100 µM (inactive) | – | > 100 µM (inactive) | > 100 µM (inactive) | > 100 µM (inactive) | > 100 µM (inactive) | > 100 µM (inactive) | > 100 µM (inactive) |
| Cn1c(=O)c(C(=O)NC23CC4CC(CC(C4)C2)C3)c(O)c2ccccc21 | 21.9 µM (inactive) | – | 50.1 µM (inactive) | – | 21.8 µM (inactive) | 23.3 µM (inactive) | > 10 µM (inactive) | – | – | 37.7 µM (inactive) | 31.5 µM (inactive) | 25.1 µM (inactive) | – | 23.4 µM (inactive) | 20.9 µM (inactive) | 14.3 µM (inactive) | 74.5 µM (inactive) | 26.2 µM (inactive) | 28.9 µM (inactive) |
| c1ccc(Cc2cccc3cc(-c4ccc(-c5ccccc5)cc4)[nH]c23)cc1 | 96.6 µM (inactive) | > 100 µM (inactive) | > 100 µM (inactive) | > 100 µM (inactive) | 31.5 µM (inactive) | 45.8 µM (inactive) | 95.1 µM (inactive) | 75.7 µM (inactive) | 61.9 µM (inactive) | > 100 µM (inactive) | > 100 µM (inactive) | > 100 µM (inactive) | 14.7 µM (inactive) | > 100 µM (inactive) | > 100 µM (inactive) | > 100 µM (inactive) | 32.7 µM (inactive) | – | – |
| CS(=O)(=O)c1ccc(C2=C(c3ccccc3)C(=O)OC2)cc1 [ROFECOXIB] | > 100 µM (inactive) | > 100 µM (inactive) | > 100 µM (inactive) | > 100 µM (inactive) | > 100 µM (inactive) | > 100 µM (inactive) | > 100 µM (inactive) | > 100 µM (inactive) | > 100 µM (inactive) | > 100 µM (inactive) | > 100 µM (inactive) | > 100 µM (inactive) | > 100 µM (inactive) | > 100 µM (inactive) | > 100 µM (inactive) | > 100 µM (inactive) | > 100 µM (inactive) | – | – |
